Experimental data published in ChEMBL document CHEMBL4376801, “Glycans in drug discovery” (Medchemcomm, 2019).
pIC50, pKd: −log10 of the molar value.

Key:
[1] = biological target: Type 1 fimbrin D-mannose specific adhesin (Escherichia coli K-12, UniProt P08191); test: Binding affinity to Escherichia coli full-length FimH by competitive fluorescence polarization assay
[2] = biological target: T1, CD209 antigen (Homo sapiens, UniProt Q9NNX6); test: Binding affinity to human DC-SIGN by SPR analysis
T1 sequence (Q9NNX6 whole entry): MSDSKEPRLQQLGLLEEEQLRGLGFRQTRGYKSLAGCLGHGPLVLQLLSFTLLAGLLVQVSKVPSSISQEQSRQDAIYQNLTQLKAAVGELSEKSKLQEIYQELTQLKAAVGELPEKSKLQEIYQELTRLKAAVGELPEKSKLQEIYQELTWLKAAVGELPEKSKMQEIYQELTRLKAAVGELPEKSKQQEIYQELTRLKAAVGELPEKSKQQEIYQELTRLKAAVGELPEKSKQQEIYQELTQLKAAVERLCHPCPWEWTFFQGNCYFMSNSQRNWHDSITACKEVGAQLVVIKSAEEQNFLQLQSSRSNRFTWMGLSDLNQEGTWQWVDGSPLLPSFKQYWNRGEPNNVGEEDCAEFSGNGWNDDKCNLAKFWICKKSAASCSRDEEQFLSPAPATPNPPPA

Sequence of Type 1 fimbrin D-mannose specific adhesin (P08191 whole entry): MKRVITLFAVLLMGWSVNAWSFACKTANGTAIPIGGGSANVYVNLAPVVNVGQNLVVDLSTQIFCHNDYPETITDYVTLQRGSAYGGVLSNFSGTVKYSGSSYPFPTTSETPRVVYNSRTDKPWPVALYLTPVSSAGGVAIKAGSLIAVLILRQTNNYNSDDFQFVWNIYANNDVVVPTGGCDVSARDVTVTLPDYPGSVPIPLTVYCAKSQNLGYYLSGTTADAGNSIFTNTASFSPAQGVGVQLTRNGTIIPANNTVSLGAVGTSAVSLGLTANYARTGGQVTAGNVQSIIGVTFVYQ

Row | pIC50 [2] | Structure (SMILES) | pKd [1]
1 |  | OC[C@H]1O[C@H](Oc2ccc(-c3ccccc3)cc2)[C@@H](O)[C@@H](O)[C@@H]1O | 5.96
2 |  | N#Cc1c(F)c(F)c(-c2ccc(O[C@H]3O[C@H](CO)[C@@H](O)[C@H](O)[C@@H]3O)c(Cl)c2)c(F)c1F | 7.66
3 | 3.32 | COC(=O)[C@H]1C[C@H](OCCN=[N+]=[N-])[C@@H](O[C@H]2O[C@H](CN)[C@@H](O)[C@H](O)[C@@H]2O)C[C@@H]1C(=O)OC | 
4 | 3.60 | [N-]=[N+]=NCCO[C@H]1C[C@H](C(=O)OCc2ccc(CN)cc2)[C@@H](C(=O)OCc2ccc(CN)cc2)C[C@@H]1O[C@H]1O[C@H](CN)[C@@H](O)[C@H](O)[C@@H]1O | 
